Measured values from patent US20100098788A1, “Extracts of Curcuma and Methods of Use Thereof” (priority 2008, published 2010).
Read-outs that look alike come from different tables or passages of the source. Each block holds one compound with its values, some of them ahead of it.

Key:
Aβ1-42 aggregation = target: T1, Aβ1-42 aggregation (Homo sapiens, UniProt P05067); test: Interaction matrices of Extract 1 with extracts and curcuminoids in the Aβ1-42 aggregation assay; format: biochemical
T1 construct: carried out with the synthetic Aβ1-42 peptide incubated with the extracts

Aβ1-42 peptide = target: T2, Aβ1-42 peptide (Homo sapiens, UniProt P05067); test: Amyloid aggregation assay (thioflavin T fluorescence); format: biochemical; details: 0 to 30 μg mL^−1, 120 h, 37° C.
T2 construct: carried out with the synthetic Aβ1-42 peptide incubated with the extracts

[1] = test system: Aβ1-40, 42 peptides secreted from SweAPP N2a cells; test: Aβ secretion ELISA in conditioned media of SweAPP N2a cells; format: cell-based; details: 3-30 μg/ml, 12 h
[2] = test system: phosphorylated tau (Ser199/220 and AT8 antibodies) in Tg2576 mice; test: Western blot of phosphorylated tau in brain homogenates after oral treatment; format: in vivo; details: soluble fraction, oral 0.07% in chow, 6 months
Protocol: The Tg2576 mice, which are engineered to develop AD within ca. 6 months after birth, were purchased from Taconic (Germantown, N.Y.). For oral administration of extracts, a total of 60 (30 female/30 male) Tg2576 mice with a B6/SJL background were employed. Beginning at 8 months of age, Tg2576 treatment mice were administered optimized turmeric Extract 1 and THC in NIH31 chow (0.07% in NIH31 chow, 167 mg/kg/day) or NIH31 chow alone (Control) for 6 months [n=20 (10 female/10 male)]. All mice were sacrificed at 14 months of age for analyses of Aβ levels and Aβ load in the brain according to previously described methods (J. Tan, T. Town, F. Crawford, T. Mori, A. DelleDonne, R. Crescentini, D. Obregon, R. A. Flavell and M. J. Mullan, 2002. Role of CD40 ligand in amyloidosis in transgenic Alzheimer's mice, Nat. Neurosci. 5:1288-1293). […]
Brain homogenates were obtained as previously described above. […] Densitometric analysis was done as previously described using a FluorS Multiimager with Quantity One™ software (BioRad, Hercules, Calif.) (K. Rezai-Zadeh, D. Shytle, N. Sun, T. Mori, H. Hou, D. Jeanniton, J. Ehrhart, K. Townsend, J. Zeng, D. Morgan, J. Hardy, T. Town and J. Tan, 2005. Green tea epigallocatechin-3-gallate (EGCG) modulates amyloid precursor protein cleavage and reduces cerebral amyloidosis in Alzheimer transgenic mice, J. Neurosci. 25:8807-8814).

[3] = test system: IL-4 and IL-2 in splenocytes of Tg2576 mice; test: Cytokine ELISA of anti-CD3 stimulated primary splenocyte cultures from treated mice; format: in vivo; details: splenocytes stimulated 24 h with anti-CD3 antibody
Protocol: FIG. 9 depicts the IL-4 to IL-2 cytokine profile of Extract 1- and THC-treated Tg2576 mice. Following sacrifice, primary cultures of splenocytes were established from the mice and stimulated for 24 hours with anti-CD3 antibody.
The Tg2576 mice, which are engineered to develop AD within ca. 6 months after birth, were purchased from Taconic (Germantown, N.Y.). For oral administration of extracts, a total of 60 (30 female/30 male) Tg2576 mice with a B6/SJL background were employed. […]
As described in the previous studies (J. Tan, T. Town, D. Paris, T. Mori, Z. Suo, F. Crawford, M. P. Mattson, R. A. Flavell and M. Mullan, 1999. Microglial activation resulting from CD40-CD40L interaction after beta-amyloid stimulation, Science. 286:2352-2355; J. Tan, T. Town, M. Saxe, D. Paris, Y. Wu and M. Mullan, 1999. Ligation of microglial CD40 results in p44/42 mitogen-activated protein kinase-dependent TNF-alpha production that is opposed by TGF-beta 1 and IL-10, J. Immunol. 163:6614-6621) cell cultured media were collected for measurement of cytokines by commercial cytokine ELISA kits. […] Cytokines were quantified using commercially available ELISAs (BioSource International, Inc., Camarillo, Calif.) that allow for detection of IL-2 and IL-4. […]

T1 sequence (P05067 672-713): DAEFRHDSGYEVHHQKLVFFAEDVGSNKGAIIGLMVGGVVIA
T2 sequence (P05067 672-713): as above

- Effect (Aβ1-42 aggregation; interaction with Extract 1 (synergistic, antagonistic or additive)): Additive
- inhibition of Aβ1-42 aggregation (Aβ1-42 peptide): effective
Structure (SMILES): COc1cc(/C=C/C(=O)CC(=O)/C=C/c2ccc(O)c(OC)c2)ccc1O [Curcumin, curcumin]

Structure (SMILES): COc1cc(/C=C/C(O)=C/C(=O)/C=C/c2ccc(O)cc2)ccc1O [DMC, demethoxycurcumin]
- IC50 (Aβ1-42 aggregation; extract or standard alone, Aβ1-42 aggregation, read-out: IC50 Individual (converted)): 1700 µM
- inhibition of Aβ generation [1]: ca. 10%

Structure (SMILES): COc1cc(CCC(=O)CC(=O)CCc2ccc(O)c(OC)c2)ccc1O [THC, tetrahydrocurcumin]
- reduction of tau hyper-phosphorylation compared to control [2]: ca. 40%
- IC50 (Aβ1-42 aggregation): 95.3 µM
- ratio of IL-4 to IL-2 cytokine levels [3]: 0.8
